From the CheMixHub ionic liquid set
± gives the uncertainty stated by the source.

Assay: xn = mol fraction of the nth substance listed

`[Cl-].[Li+]` + CCCCCC[n+]1ccn(C)c1.N#C[S-] + CN1CCCC1=O gave a viscosity (298.15 K, 101 kPa, x2 = 0, x1 = 0.04156) of 2.626 ± 0.035 mPa·s, a viscosity (298.15 K, 101 kPa, x2 = 0, x1 = 0.07132) of 3.558 ± 0.046 mPa·s and a viscosity (298.15 K, 101 kPa, x2 = 0, x1 = 0.1038) of 4.959 ± 0.064 mPa·s.

`CC(C)O` + CCCCCC[n+]1ccn(C)c1.O=S(=O)([N-]S(=O)(=O)C(F)(F)F)C(F)(F)F gave a viscosity (293.15 K, 100 kPa, x1 = 1) of 2.42 ± 0.24 mPa·s, a viscosity (298.15 K, 100 kPa, x1 = 1) of 2.05 ± 0.21 mPa·s and a viscosity (303.15 K, 100 kPa, x1 = 1) of 1.73 ± 0.17 mPa·s. For the same compound, the viscosity (308.15 K, 100 kPa, x1 = 1) was 1.49 ± 0.15 mPa·s and the viscosity (313.15 K, 100 kPa, x1 = 1) was 1.34 ± 0.13 mPa·s.

For `CCCCCCCCCCCCCC[P+](CCCCCC)(CCCCCC)CCCCCC.O=S(=O)([N-]S(=O)(=O)C(F)(F)F)C(F)(F)F` + CCCCCC[n+]1ccn(C)c1.O=S(=O)([N-]S(=O)(=O)C(F)(F)F)C(F)(F)F, the viscosity (278.15 K, 100 kPa, x2 = 0.404) was 870 ± 120 mPa·s and the viscosity (283.15 K, 100 kPa, x2 = 0.097) was 770 ± 100 mPa·s.

In the case of `CC(C)O` + CCCCCC[n+]1ccn(C)c1.O=S(=O)([O-])C(F)(F)F, the viscosity (298.15 K, 100 kPa, x1 = 1) is reported as 2.05 ± 0.21 mPa·s and the viscosity (308.15 K, 100 kPa, x1 = 1) is reported as 1.49 ± 0.15 mPa·s.

`CC(C)O` + CCCCCC[n+]1ccn(C)c1.O=[N+]([O-])[O-] showed a viscosity (293.15 K, 100 kPa, x2 = 0) of 2.42 ± 0.12 mPa·s, a viscosity (298.15 K, 100 kPa, x2 = 0) of 2.08 ± 0.1 mPa·s and a viscosity (303.15 K, 100 kPa, x2 = 0) of 1.8 ± 0.09 mPa·s. For the same compound, the viscosity (308.15 K, 100 kPa, x2 = 0) was 1.56 ± 0.08 mPa·s, the viscosity (313.15 K, 100 kPa, x2 = 0) was 1.36 ± 0.07 mPa·s and the viscosity (318.15 K, 100 kPa, x2 = 0) was 1.19 ± 0.06 mPa·s. It also gave a viscosity (323.15 K, 100 kPa, x2 = 0) of 1.05 ± 0.05 mPa·s.

`CCCCC[N+](CC)(CC)CC.O=S(=O)([N-]S(=O)(=O)C(F)(F)F)C(F)(F)F` + CCCCC[P+](CC)(CC)CC.O=S(=O)([N-]S(=O)(=O)C(F)(F)F)C(F)(F)F gave a viscosity (298.15 K, 101.3 kPa, x1 = 0.6) of 123 ± 25 mPa·s, a viscosity (303.15 K, 101.3 kPa, x1 = 1) of 126 ± 25 mPa·s and a viscosity (318.15 K, 101.3 kPa, x1 = 0.2) of 39.5 ± 7.9 mPa·s. The viscosity (338.15 K, 101.3 kPa, x1 = 0.6) was 22.8 ± 4.6 mPa·s, the viscosity (343.15 K, 101.3 kPa, x1 = 1) was 23.3 ± 4.7 mPa·s and the viscosity (348.15 K, 101.3 kPa, x1 = 0.8) was 18.3 ± 3.7 mPa·s. For the same compound, the viscosity (353.15 K, 101.3 kPa, x1 = 0.2) was 13.1 ± 2.6 mPa·s and the viscosity (353.15 K, 101.3 kPa, x1 = 1) was 17.3 ± 3.5 mPa·s.

With `CCCCCCCCn1cc[n+](C)c1.O=[N+]([O-])[O-]` + CCCCO the viscosity (283.15 K, 101 kPa, x2 = 0.168) was 770 ± 280 mPa·s, the viscosity (293.15 K, 101 kPa, x2 = 0.358) was 137 ± 19 mPa·s and the viscosity (293.15 K, 101 kPa, x2 = 0.57) was 38.5 ± 1.5 mPa·s. For the same compound, the viscosity (293.15 K, 101 kPa, x2 = 0.676) was 20.63 ± 0.9 mPa·s, the viscosity (293.15 K, 101 kPa, x2 = 0.848) was 7.8 ± 0.58 mPa·s and the viscosity (298.15 K, 101 kPa, x2 = 0.458) was 59.3 ± 1.9 mPa·s. The viscosity (298.15 K, 101 kPa, x2 = 0.57) was 31.8 ± 1.3 mPa·s, the viscosity (298.15 K, 101 kPa, x2 = 0.848) was 6.79 ± 0.56 mPa·s and the viscosity (303.15 K, 101 kPa, x2 = 0.458) was 47.9 ± 1.8 mPa·s. It also gave a viscosity (303.15 K, 101 kPa, x2 = 0.676) of 14.91 ± 0.74 mPa·s, a viscosity (308.15 K, 101 kPa, x2 = 0.358) of 64.5 ± 2.6 mPa·s and a viscosity (308.15 K, 101 kPa, x2 = 0.676) of 12.81 ± 0.68 mPa·s. It also gave a viscosity (313.15 K, 101 kPa, x2 = 0.168) of 123 ± 15 mPa·s, a viscosity (313.15 K, 101 kPa, x2 = 0.358) of 52.2 ± 1.2 mPa·s and a viscosity (318.15 K, 101 kPa, x2 = 0.358) of 42.8 ± 1.6 mPa·s. For the same compound, the viscosity (323.15 K, 101 kPa, x2 = 0.458) was 23.19 ± 0.96 mPa·s, the viscosity (323.15 K, 101 kPa, x2 = 0.57) was 14.15 ± 0.71 mPa·s and the viscosity (323.15 K, 101 kPa, x2 = 0.676) was 8.67 ± 0.59 mPa·s. It also gave a viscosity (323.15 K, 101 kPa, x2 = 0.848) of 3.61 ± 0.52 mPa·s and a viscosity (328.15 K, 101 kPa, x2 = 0.458) of 17.18 ± 0.8 mPa·s.

With `CCCC[n+]1ccn(C)c1.O=S(=O)([O-])C(F)(F)F` + CCCCO the viscosity (298.15 K, 100 kPa, x1 = 0.1091) was 3.69 ± 0.74 mPa·s, the viscosity (298.15 K, 100 kPa, x1 = 0.2147) was 6.2 ± 1.2 mPa·s and the viscosity (298.15 K, 100 kPa, x1 = 0.2908) was 8.9 ± 1.8 mPa·s. For the same compound, the viscosity (298.15 K, 100 kPa, x1 = 0.4008) was 14.2 ± 2.9 mPa·s, the viscosity (298.15 K, 100 kPa, x1 = 0.5123) was 20.6 ± 4.1 mPa·s and the viscosity (298.15 K, 100 kPa, x1 = 0.5928) was 26 ± 5.2 mPa·s. For the same compound, the viscosity (298.15 K, 100 kPa, x1 = 0.6991) was 35.4 ± 7.1 mPa·s, the viscosity (298.15 K, 100 kPa, x1 = 0.8056) was 47.6 ± 9.5 mPa·s and the viscosity (298.15 K, 100 kPa, x1 = 0.9078) was 63 ± 13 mPa·s. For the same compound, the viscosity (298.15 K, 100 kPa, x1 = 1) was 82 ± 17 mPa·s, the viscosity (303.15 K, 100 kPa, x1 = 0.1091) was 3.24 ± 0.65 mPa·s and the viscosity (303.15 K, 100 kPa, x1 = 0.2147) was 5.1 ± 1 mPa·s. The viscosity (303.15 K, 100 kPa, x1 = 0.2908) was 6.9 ± 1.4 mPa·s, the viscosity (303.15 K, 100 kPa, x1 = 0.4008) was 11.5 ± 2.3 mPa·s and the viscosity (303.15 K, 100 kPa, x1 = 0.5123) was 17.5 ± 3.5 mPa·s. For the same compound, the viscosity (303.15 K, 100 kPa, x1 = 0.5928) was 22.6 ± 4.5 mPa·s, the viscosity (303.15 K, 100 kPa, x1 = 0.6991) was 30.2 ± 6 mPa·s and the viscosity (303.15 K, 100 kPa, x1 = 0.8056) was 38.8 ± 7.8 mPa·s. The viscosity (303.15 K, 100 kPa, x1 = 0.9078) was 51 ± 10 mPa·s, the viscosity (303.15 K, 100 kPa, x1 = 1) was 67 ± 13 mPa·s and the viscosity (308.15 K, 100 kPa, x1 = 0.1091) was 2.87 ± 0.57 mPa·s. The viscosity (308.15 K, 100 kPa, x1 = 0.2147) was 4.45 ± 0.89 mPa·s, the viscosity (308.15 K, 100 kPa, x1 = 0.2908) was 6 ± 1.2 mPa·s and the viscosity (308.15 K, 100 kPa, x1 = 0.4008) was 11 ± 2.2 mPa·s. The viscosity (308.15 K, 100 kPa, x1 = 0.5123) was 15.3 ± 3.1 mPa·s, the viscosity (308.15 K, 100 kPa, x1 = 0.5928) was 19.3 ± 3.9 mPa·s and the viscosity (308.15 K, 100 kPa, x1 = 0.6991) was 25.4 ± 5.1 mPa·s. For the same compound, the viscosity (308.15 K, 100 kPa, x1 = 0.8056) was 32 ± 6.4 mPa·s, the viscosity (308.15 K, 100 kPa, x1 = 0.9078) was 40.6 ± 8.1 mPa·s and the viscosity (308.15 K, 100 kPa, x1 = 1) was 53 ± 11 mPa·s. It also gave a viscosity (313.15 K, 100 kPa, x1 = 0.1091) of 2.55 ± 0.51 mPa·s, a viscosity (313.15 K, 100 kPa, x1 = 0.2147) of 3.93 ± 0.79 mPa·s and a viscosity (313.15 K, 100 kPa, x1 = 0.2908) of 5.3 ± 1.1 mPa·s. The viscosity (313.15 K, 100 kPa, x1 = 0.4008) was 9.5 ± 1.9 mPa·s, the viscosity (313.15 K, 100 kPa, x1 = 0.5123) was 13.6 ± 2.7 mPa·s and the viscosity (313.15 K, 100 kPa, x1 = 0.5928) was 16.9 ± 3.4 mPa·s. For the same compound, the viscosity (313.15 K, 100 kPa, x1 = 0.6991) was 21.6 ± 4.3 mPa·s, the viscosity (313.15 K, 100 kPa, x1 = 0.8056) was 27.2 ± 5.4 mPa·s and the viscosity (313.15 K, 100 kPa, x1 = 0.9078) was 34.7 ± 6.9 mPa·s. The viscosity (313.15 K, 100 kPa, x1 = 1) was 43.7 ± 8.8 mPa·s, the viscosity (318.15 K, 100 kPa, x1 = 0.1091) was 2.27 ± 0.45 mPa·s and the viscosity (318.15 K, 100 kPa, x1 = 0.2147) was 3.48 ± 0.7 mPa·s. The viscosity (318.15 K, 100 kPa, x1 = 0.2908) was 4.68 ± 0.94 mPa·s, the viscosity (318.15 K, 100 kPa, x1 = 0.4008) was 7.9 ± 1.6 mPa·s and the viscosity (318.15 K, 100 kPa, x1 = 0.5123) was 11.2 ± 2.2 mPa·s. It also gave a viscosity (318.15 K, 100 kPa, x1 = 0.5928) of 13.8 ± 2.8 mPa·s, a viscosity (318.15 K, 100 kPa, x1 = 0.6991) of 17.8 ± 3.6 mPa·s and a viscosity (318.15 K, 100 kPa, x1 = 0.8056) of 22.6 ± 4.5 mPa·s. For the same compound, the viscosity (318.15 K, 100 kPa, x1 = 0.9078) was 28.5 ± 5.7 mPa·s, the viscosity (318.15 K, 100 kPa, x1 = 1) was 36.3 ± 7.3 mPa·s and the viscosity (323.15 K, 100 kPa, x1 = 0.1091) was 2.04 ± 0.41 mPa·s. For the same compound, the viscosity (323.15 K, 100 kPa, x1 = 0.2147) was 3.11 ± 0.62 mPa·s, the viscosity (323.15 K, 100 kPa, x1 = 0.2908) was 4.17 ± 0.84 mPa·s and the viscosity (323.15 K, 100 kPa, x1 = 0.4008) was 7.2 ± 1.4 mPa·s. For the same compound, the viscosity (323.15 K, 100 kPa, x1 = 0.5123) was 10.1 ± 2 mPa·s, the viscosity (323.15 K, 100 kPa, x1 = 0.5928) was 12.4 ± 2.5 mPa·s and the viscosity (323.15 K, 100 kPa, x1 = 0.6991) was 15.8 ± 3.2 mPa·s. For the same compound, the viscosity (323.15 K, 100 kPa, x1 = 0.8056) was 19.3 ± 3.9 mPa·s, the viscosity (323.15 K, 100 kPa, x1 = 0.9078) was 24.4 ± 4.9 mPa·s and the viscosity (323.15 K, 100 kPa, x1 = 1) was 30.6 ± 6.1 mPa·s.

Compound `CCCCCCCCn1cc[n+](C)c1.F[B-](F)(F)F` + CCCCOC(C)=O has a viscosity (298.15 K, 101 kPa, x2 = 0.114) of 187 ± 11 mPa·s, a viscosity (298.15 K, 101 kPa, x2 = 0.4512) of 34.1 ± 0.44 mPa·s and a viscosity (298.15 K, 101 kPa, x2 = 0.9065) of 1.76 ± 0.03 mPa·s.
